Where a name gives a salt, the structure may show the parent alone.

This note sets out measurements from patent US8168679B2, “Salts of Tramadol and Naproxen and their crystal forms in the treatment of pain” (Laboratorios del Dr. Esteve, S.A., priority 2007, dated 2012).

Data set [1] is described as follows: Determination of the hygroscopicity of the crystalline salts (weight variation and Karl Fischer in humidity chamber). In kind it is physicochemical. As to conditions: for KF (t = 0): Karl Fischer value at the beginning of the study; for KF (t = 6 days): Karl Fischer value at the end of the study, 6 days in humidity chamber; for hygroscopicity according to the scale: class by % incorporation of water; for Δ % weigth 24 h / Δ % weigth 48 h / Δ % weigth 6 days: humidity chamber, 64% relative humidity, 25±2° C. From the text: The objective was to measure the hygroscopicity of the salts of the present invention, and comparing it with the one of the known salt of each counter part of the salts. The increasing of the weight will be measured in order to evaluate the incorporation of water in the samples, together with the Karl Fischer factor.
According to “Technical guide for the elaboration of monographs” special issue PharmaEuropa, 3rd ed., December 1999, the hygroscopicity is defined based on the augmentation of weight after 24 hours of exposition to 80% of relative humidity at 25° C. The scale is the following:
Methods: • Preparation of the Humidity chamber: A supersaturated solution of sodium nitrite (45 g/50 ml) is prepared and introduced in a humidification chamber (samplaterecord). The chamber is maintained at a temperature of 25±2° C. during 24 hours before use, and humidity is controlled each day. […] 102.2 mg of sodium naproxen. • The samples are introduced in the conditioned humidity chamber, and the weight is controlled after 24 hours, 48 hours, and 6 days, till an equilibrium is reached (2 successive control with a variation of weight less than 0.2 mg). • The Karl Fischer is also determined (using a Methrom 756 KF) at the beginning and at the end of the study.
The variation of the weight is controlled and the following percentage is calculated: Δ% weigth=(Pn−P1)/P1×100 wherein: P1 is the initial weight, Pn is the weight measured for the sample.

In data set [2] the test system is TNBS-induced colonic hypersensitivity. In words: TNBS-induced colonic hypersensitivity (visceral pain model, colonic distension). In kind it is in vivo, Male Sprague-Dawley rats. As to conditions: rats, day 7 after TNBS, 5 mg/kg orally, FIG. 12.
Experimental: The effect of the salts of the present invention on pain is measured in a model of visceral pain well known in the art: the TNBS-induced colonic hypersensitivity. In this model, the injection of trinitrobenzene sulfonic acid (TNBS) into the proximal colon provoke chronic colonic hypersensitivity, measured in conscious rats by a decreased pain threshold in response to colonic distension.
The animals are Male Sprague-Dawley rats (360-400 g, France). They were housed in a temperature (19.5° C. 24.5° C.) and relative humidity (45%-65%) controlled room with a 12 h—light/dark cycle, with ad libitum access to standard pelleted laboratory chow and water throughout the study.
Fasted (24 hours) animals were undergoing surgery for administration of TNBS (50 mg/kg) into the proximal part of the colon. […]
Day 7 after TNBS injection: Compounds were administered and the colonic hypersensitivity due to TNBS-induced colonic inflammation was measured before the treatment, and at t=20, 45, 90 and 120 min after treatment. […]
The 95% confidence intervals of each of the arithmetic means were also calculated.
Statistical significance between the treated groups and the vehicle-treated group was determined by a two-way repeated measures ANOVA followed, when F-value is significant, by an appropriate post-hoc comparison (Bonferroni's test) using SigmaStat software.

As to `COc1ccc2cc([C@H](C)C(=O)[O-])ccc2c1.[Na+]` [sodium naproxen], in data set [1], the “KF (t = 0)” value is on record as 1.04, the “KF (t = 6 days)” value is 12.65, the “hygroscopicity according to the scale” value is listed as “hygroscopic” and the “Δ % weigth 24 h” value is on record as 14.39%. In addition, in data set [1], the “Δ % weigth 48 h” value came to 14.39% and the “Δ % weigth 6 days” value is listed as 14.3%.
As for `COc1cccc(C2(O)CCCCC2CN(C)C)c1` (centres unmarked) [tramadol hydrochloride], in data set [1], the “KF (t = 0)” value is reported as 0.45, the “KF (t = 6 days)” value was determined as 0.23, the “hygroscopicity according to the scale” value is reported as “slightly hygroscopic” and the “Δ % weigth 24 h” value came to 0.19%. Moreover, in data set [1], the “Δ % weigth 48 h” value is on record as 0.26% and the “Δ % weigth 6 days” value is given as 0.18%.
For “(R,R)-Tramadol-(S)-Naproxene Salt [Example 2]”, the “colonic threshold (pain threshold to colonic distension)” value in data set [2] (20-120 min after treatment) was “nearly recovering the same level of colonic threshold than the naive animal”. Also, the “anti-hypersensitive effect compared with the corresponding combination (Combo-02)” value in data set [2] is reported as “superior effect”.
